Experimental data as given in patent publication US20220119411A1, “IMMUNOMODULATORS, COMPOSITIONS AND METHODS THEREOF” (BETTA PHARMACEUTICALS CO., LTD, priority 2018, published 2022).

Biological target: T1, PD-1/PD-L1 protein/protein interaction (Homo sapiens, UniProt Q9NZQ7)
T1 construct: Recombinant human PD-L1 protein (19-238) with a His-tag at the C-terminus; purchased AcroBiosystems PD1-H5229 (PD-L1); PD1-H5257 (PD-1)
Test: PD-1/PD-L1 homogenous time-resolved fluorescence (HTRF) binding assay
Details: recombinant human PD-L1 (19-238)-His 10 nM, human PD-1 (25-167)-Fc 3 nM, 25° C., PBS pH 7.4
Method: Resolved Fluorescence (HTRF) Binding Assay
The assays were conducted in a standard black 384-well polystyrene plate with a final volume of 20 μL. Inhibitors were first serially diluted in DMSO and then added to the plate wells before the addition of other reaction components. The final concentration of DMSO in the assay was 1%. The assays were carried out at 25° C. in the PBS buffer (pH 7.4) with 0.05% Tween-20 and 0.1% BSA. Recombinant human PD-L1 protein (19-238) with a His-tag at the C-terminus was purchased from AcroBiosy stems (PD1-H5229). Recombinant human PD-1 protein (25-167) with Fc tag at the C-terminus was also purchased from AcroBiosystems (PD1-H5257). PD-L1 and PD-1 proteins were diluted in the assay buffer and 10 μL was added to the plate well. Plates were centrifuged and proteins were preincubated with inhibitors for 40 min. The incubation was followed by the addition of 10 μL of HTRF detection buffer supplemented with Europium cryptate-labeled anti-human IgG (PerkinElmer-AD0212) specific for Fc and anti-His antibody conjugated to SureLight®—Allophycocyanin (APC, PerkinElmer-AD0059H). After centrifugation, the plate was incubated at 25° C. for 60 min. Before reading on a PHERAstar FS plate reader (665 nm/620 nm ratio). Final concentrations in the assay were—3 nM PD1, 10 nM PD-L1, 1 nM europium anti-human IgG and 20 nM anti-His-Allophycocyanin. IC50 determination was performed by fitting the curve of percent control activity versus the log of the inhibitor concentration using the GraphPad Prism 5.0 software.
Data obtained for the Example compounds using the PD-1/PD-L1 homogenous time-resolved fluorescence (HTRF) binding assay described in Example A is provided in Table 2.

T1 sequence (Q9NZQ7 19-238): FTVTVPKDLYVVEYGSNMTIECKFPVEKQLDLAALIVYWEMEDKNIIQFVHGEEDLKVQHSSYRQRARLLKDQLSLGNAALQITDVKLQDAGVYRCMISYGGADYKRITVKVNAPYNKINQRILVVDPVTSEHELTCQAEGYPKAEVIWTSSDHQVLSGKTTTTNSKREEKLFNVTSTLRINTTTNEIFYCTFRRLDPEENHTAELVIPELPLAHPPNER

Question: Which IC50 does the source give for Cc1c(NC(=O)CCN2CCC(O)C2)cccc1-c1cccc2c1CCN2C(=O)c1nc2c(n1C)CN(CC(=O)O)CC2 (centres unmarked) [Example 33, 2-(2-(4-(3-(3-(3-hydroxypyrrolidin-1-yl)propanamido)-2-methylphenyl)indoline-1-carbonyl)-3-methyl-3,4,6,7-tetrahydro-5H-imidazo[4,5-c]pyridin-5-yl)acetic acid] here?
Answer: The IC50 was at most 25 nM.

Question: CN1CCc2c(-c3cccc4c3CCN4C(=O)c3nc4c(s3)CN(CC(=O)O)CC4)cccc21 [Example 1, 2-(2-(1′-methyl-[4,4′-biindoline]-1-carbonyl)-6,7-dihydrothiazolo[5,4-c]pyridin-5(4H)-yl)acetic acid] was tested. Which IC50 did it give?
Answer: Its IC50 is 25 to 100 nM.

Question: How did the IC50 turn out when Cc1c(OCCCN2CCOCC2)cccc1-c1cccc2c1CCN2C(=O)c1nc2c(o1)CN(CC(=O)O)CC2 [Example 23, 2-(2-(4-(2-methyl-3-(3-morpholinopropoxy)phenyl)indoline-1-carbonyl)-6,7-dihydrooxazolo[5,4-c]pyridin-5(4H)-yl)acetic acid] was run?
Answer: The IC50 was at most 25 nM.

Question: For Cc1c(OCCCN2CCC(O)C2)cccc1-c1cccc2c1CCN2C(=O)c1nc2c(n1C)CCNC2 (centres unmarked) [Example 38, (4-(3-(3-(3-hydroxypyrrolidin-1-yl)propoxy)-2-methylphenyl)indolin-1-yl)(1-methyl-4,5,6,7-tetrahydro-1H-imidazo[4,5-c]pyridin-2-yl)methanone], which IC50 is on record?
Answer: The IC50 was at most 25 nM.

Question: O=C(O)CN1CCc2nc(C(=O)N3CCc4c(-c5cccc(OCCCN6CCC(O)C6)c5)cccc43)sc2C1 (centres unmarked) [Example 7, 2-(2-(4-(3-(3-(3-hydroxypyrrolidin-1-yl)propoxy)phenyl)indoline-1-carbonyl)-6,7-dihydrothiazolo[5,4-c]pyridin-5(4H)-yl)acetic acid] was tested. Which IC50 did it give?
Answer: The IC50 was at most 25 nM.

Question: Which IC50 does the source give for O=C(O)CN1CCc2nc(C(=O)N3CCc4c(-c5cccc(OCCCN6CCC(O)C6)c5)cccc43)sc2C1 (centres unmarked) [Example 10, 2-(2-(4-(3-(3-(3-hydroxypyrrolidin-1-yl)propoxy)phenyl)indoline-1-carbonyl)-6,7-dihydrothiazolo[5,4-c]pyridin-5(4H)-yl)acetic acid] here?
Answer: The IC50 was at most 25 nM.

Question: COc1cccc(-c2cccc3c2CCN3C(=O)c2nc3c(s2)CN(CC(=O)O)CC3)c1 [Example 3, 2-(2-(4-(3-methoxyphenyl)indoline-1-carbonyl)-6,7-dihydrothiazolo[5,4-c]pyridin-5(4H)-yl)acetic acid] was tested. Which IC50 did it give?
Answer: The IC50 was at most 25 nM.

Question: Which IC50 does the source give for Cc1c(OCCCN2CCOCC2)cccc1-c1cccc2c1CCN2C(=O)c1nc2c(n1C)CN(CC(=O)O)CC2 [Example 21, 2-(3-methyl-2-(4-(2-methyl-3-(3-morpholinopropoxy)phenyl)indoline-1-carbonyl)-3,4,6,7-tetrahydro-5H-imidazo[4,5-c]pyridin-5-yl)acetic acid] here?
Answer: The IC50 was at most 25 nM.

Question: Which IC50 does the source give for Cc1c(OCCCN2CCC(O)C2)cccc1-c1cccc2c1CCN2C(=O)c1nnc(CN)s1 (centres unmarked) [Example 43, (5-(aminomethyl)-1,3,4-thiadiazol-2-yl)(4-(3-(3-(3-hydroxypyrrolidin-1-yl)propoxy)-2-methylphenyl)indolin-1-yl)methanone] here?
Answer: Its IC50 is at most 25 nM.

Question: For O=C(O)CN1CCc2nc(C(=O)N3CCc4c(-c5cccc(OCCN6CCC(O)C6)c5)cccc43)sc2C1 (centres unmarked) [Example 8, 2-(2-(4-(3-(2-(3-hydroxypyrrolidin-1-yl)ethoxy)phenyl)indoline-1-carbonyl)-6,7-dihydrothiazolo[5,4-c]pyridin-5(4H)-yl)acetic acid], which IC50 is on record?
Answer: The IC50 was at most 25 nM.

Question: With O=C(O)CN1CCc2nc(C(=O)N3CCc4c(-c5cccc(CCCCN6CCOCC6)c5)cccc43)sc2C1 [Example 16, 2-(2-(4-(3-(4-morpholinobutyl)phenyl)indoline-1-carbonyl)-6,7-dihydrothiazolo[5,4-c]pyridin-5(4H)-yl)acetic acid] as the compound, how does the IC50 read?
Answer: The IC50 was at most 25 nM.

Question: Which IC50 does the source give for Cc1c(NC(=O)CCN2CCC(O)C2)cccc1-c1cccc2c1CCN2C(=O)c1nc2c(n1C)CNCC2 (centres unmarked) [Example 34, 3-(3-hydroxypyrrolidin-1-yl)-N-(2-methyl-3-(1-(3-methyl-4,5,6,7-tetrahydro-3H-imidazo[4,5-c]pyridine-2-carbonyl)indolin-4-yl)phenyl)propanamide] here?
Answer: Its IC50 is at most 25 nM.

Question: With Cc1c(NC(=O)c2nc3c(n2C)CNCC3)cccc1-c1cccc2c1CCN2C(=O)c1nc2c(s1)CN(CC(=O)O)CC2 [Example 31, 2-(2-(4-(2-methyl-3-(3-methyl-4,5,6,7-tetrahydro-3H-imidazo[4,5-c]pyridine-2-carboxamido)phenyl)indoline-1-carbonyl)-6,7-dihydrothiazolo[5,4-c]pyridin-5(4H)-yl)acetic acid] as the compound, how does the IC50 read?
Answer: The IC50 was at most 25 nM.

Question: How did the IC50 turn out when O=C(O)CN1CCc2nc(C(=O)N3CCc4c(-c5cccc(CCCN6CCOCC6)c5)cccc43)sc2C1 [Example 17, 2-(2-(4-(3-(3-morpholinopropyl)phenyl)indoline-1-carbonyl)-6,7-dihydrothiazolo[5,4-c]pyridin-5(4H)-yl)acetic acid] was run?
Answer: The IC50 was at most 25 nM.

Question: For Cn1c(C(=O)N2CCCc3c(-c4cccc(OCCN5CCOCC5)c4)cccc32)nc2c1CCN(CC(=O)O)C2 [Example 52, 2-(1-methyl-2-(5-(3-(2-morpholinoethoxy)phenyl)-1,2,3,4-tetrahydroquinoline-1-carbonyl)-1,4,6,7-tetrahydro-5H-imidazo[4,5-c]pyridin-5-yl)acetic acid], which IC50 is on record?
Answer: The IC50 was at most 25 nM.

Question: Cc1c(Nc2nccc3cc(CN4CCCC[C@H]4C(=O)O)cnc23)cccc1-c1cccc2c1CCN2C(=O)c1nc2c(s1)CNCC2 [Example 58, (S)-1-((8-((2-methyl-3-(1-(4,5,6,7-tetrahydrothiazolo[5,4-c]pyridine-2-carbonyl)indolin-4-yl)phenyl)amino)-1,7-naphthyridin-3-yl)methyl)piperidine-2-carboxylic acid] was tested. Which IC50 did it give?
Answer: Its IC50 is at most 25 nM.

Question: For Cc1c(NC(=O)c2ccccn2)cccc1-c1cccc2c1CCN2C(=O)c1nc2c(s1)CN(CC(=O)O)CC2 [Example 27, 2-(2-(4-(2-methyl-3-(picolinamido)phenyl)indoline-1-carbonyl)-6,7-dihydrothiazolo[5,4-c]pyridin-5(4H)-yl)acetic acid], which IC50 is on record?
Answer: Its IC50 is at most 25 nM.

Question: How did the IC50 turn out when O=C(O)CN1CCc2nc(C(=O)N3CCc4c(-c5cccc(/C=C/CN6CCOCC6)c5)cccc43)sc2C1 [Example 18, (E)-2-(2-(4-(3-(3-morpholinoprop-1-en-1-yl)phenyl)indoline-1-carbonyl)-6,7-dihydrothiazolo[5,4-c]pyridin-5(4H)-yl)acetic acid] was run?
Answer: Its IC50 is at most 25 nM.

Question: With Cc1c(OCCCN2CCC(O)C2)cccc1-c1cccc2c1CCN2C(=O)c1nnc([C@@H]2CCCN2)s1 (stereo partly drawn) [Example 44, (4-(3-(3-(3-hydroxypyrrolidin-1-yl)propoxy)-2-methylphenyl)indolin-1-yl)(5-((S)-pyrrolidin-2-yl)-1,3,4-thiadiazol-2-yl)methanone] as the compound, how does the IC50 read?
Answer: Its IC50 is at most 25 nM.

Question: How did the IC50 turn out when Cn1c(C(=O)N2CCc3c(-c4cccc5c4CCN5CCCN4CCC(O)C4)cccc32)nc2c1CCNC2 (centres unmarked) [Example 40, (1′-(3-(3-hydroxypyrrolidin-1-yl)propyl)-[4,4′-biindolin]-1-yl)(1-methyl-4,5,6,7-tetrahydro-1H-imidazo[4,5-c]pyridin-2-yl)methanone] was run?
Answer: The IC50 was 25 to 100 nM.

Question: How did the IC50 turn out when CN1CCc2nc(C(=O)N3CCc4c(-c5ccc6c(c5)OCCO6)cccc43)sc2C1 [Example 57, (4-(2,3-dihydrobenzo[b][1,4]dioxin-6-yl)indolin-1-yl)(5-methyl-4,5,6,7-tetrahydrothiazolo[5,4-c]pyridin-2-yl)methanone] was run?
Answer: Its IC50 is at most 25 nM.

Question: O=C(O)CN1CCc2nc(C(=O)N3CCc4c(-c5cccc(OCCCCN6CCC(O)C6)c5)cccc43)sc2C1 (centres unmarked) [Example 9, 2-(2-(4-(3-(4-(3-hydroxypyrrolidin-1-yl)butoxy)phenyl)indoline-1-carbonyl)-6,7-dihydrothiazolo[5,4-c]pyridin-5(4H)-yl)acetic acid] was tested. Which IC50 did it give?
Answer: Its IC50 is at most 25 nM.

Question: With Cc1c(OCCCN2CCC(O)C2)cccc1-c1cccc2c1CCN2C(=O)c1nc2c(n1C)CN(CC(=O)O)CC2 (centres unmarked) [Example 36, 2-(2-(4-(3-(3-(3-hydroxypyrrolidin-1-yl)propoxy)-2-methylphenyl)indoline-1-carbonyl)-3-methyl-3,4,6,7-tetrahydro-5H-imidazo[4,5-c]pyridin-5-yl)acetic acid] as the compound, how does the IC50 read?
Answer: The IC50 was at most 25 nM.

Question: With O=C(O)CN1CCc2nc(C(=O)N3CCCc4c(-c5ccccc5)cccc43)sc2C1 [Example 28, 2-(2-(5-phenyl-1,2,3,4-tetrahydroquinoline-1-carbonyl)-6,7-dihydrothiazolo[5,4-c]pyridin-5(4H)-yl)acetic acid] as the compound, how does the IC50 read?
Answer: Its IC50 is 25 to 100 nM.

Question: With O=C(O)CN1CCc2nc(C(=O)N3CCc4c(-c5ccccc5)cccc43)sc2C1 [Example 4, 2-(2-(4-phenylindoline-1-carbonyl)-6,7-dihydrothiazolo[5,4-c]pyridin-5(4H)-yl)acetic acid] as the compound, how does the IC50 read?
Answer: The IC50 was at most 25 nM.

Question: Which IC50 does the source give for Cc1nc(C(=O)N2CCc3c(-c4cccc5c4CCN5C(=O)CCN4CCC(O)C4)cccc32)sc1CNCCO (centres unmarked) [Example 46, 1-(1′-(5-(((2-hydroxyethyl)amino)methyl)-4-methylthiazole-2-carbonyl)-[4,4′-biindolin]-1-yl)-3-(3-hydroxypyrrolidin-1-yl)propan-1-one] here?
Answer: The IC50 was at most 25 nM.
